{"source": "ChEMBL document CHEMBL1201862", "about": "“PubChem BioAssay data set” (2004)", "experiment_in_all_cases": "DTP human tumour cell line panel, 48 h", "key": {"RXF 393": {"test_system": "RXF 393"}, "OVCAR-3": {"test_system": "OVCAR-3"}, "SW-620": {"test_system": "SW-620"}, "UO-31": {"test_system": "UO-31"}, "U-251": {"test_system": "U-251"}, "DU-145": {"test_system": "DU-145"}, "A498": {"test_system": "A498"}, "A549": {"test_system": "A549"}, "SF-295": {"test_system": "SF-295"}, "PC-3": {"test_system": "PC-3"}, "HCT-15": {"test_system": "HCT-15"}, "EKVX": {"test_system": "EKVX"}, "SK-MEL-28": {"test_system": "SK-MEL-28"}, "SF-268": {"test_system": "SF-268"}, "SN12C": {"test_system": "SN12C"}, "MDA-N": {"test_system": "MDA-N"}, "MCF7": {"test_system": "MCF7"}, "OVCAR-5": {"test_system": "OVCAR-5"}, "RPMI-8226": {"test_system": "RPMI-8226"}, "OVCAR-4": {"test_system": "OVCAR-4"}, "SR": {"test_system": "SR"}, "MOLT-4": {"test_system": "MOLT-4"}, "HL-60": {"test_system": "HL-60"}, "CCRF-CEM": {"test_system": "CCRF-CEM"}, "IGROV-1": {"test_system": "IGROV-1"}, "SK-OV-3": {"test_system": "SK-OV-3"}, "HCC 2998": {"test_system": "HCC 2998"}, "UACC-62": {"test_system": "UACC-62"}, "786-0": {"test_system": "786-0"}, "UACC-257": {"test_system": "UACC-257"}, "T47D": {"test_system": "T47D"}, "COLO 205": {"test_system": "COLO 205"}, "SK-MEL-5": {"test_system": "SK-MEL-5"}, "CAKI-1": {"test_system": "CAKI-1"}, "LOX IMVI": {"test_system": "LOX IMVI"}, "OVCAR-8": {"test_system": "OVCAR-8"}, "MDA-MB-231": {"test_system": "MDA-MB-231"}, "MDA-MB-435": {"test_system": "MDA-MB-435"}, "HT-29": {"test_system": "HT-29"}, "KM12": {"test_system": "KM12"}, "TK-10": {"test_system": "TK-10"}, "HOP-92": {"test_system": "HOP-92"}, "Malme-3M": {"test_system": "Malme-3M"}, "NCI-H23": {"test_system": "NCI-H23"}, "M14": {"test_system": "M14"}, "SNB-75": {"test_system": "SNB-75"}, "K562": {"test_system": "K562"}}, "note": "Where “and” joins values, the source holds several entries; their conditions need not be identical. Equal entries are not always repeated.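 How tested: cells in 96-well plates exposed to compound for 48 hours at five concentrations. GI50 is the concentration that inhibits growth by half.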 Calls of active or inactive are those of the source. Rule as the data show it: active = GI50 up to about 1.1 µM and inactive = higher.", "data": [{"compound": "CC[C@H](CCCCC1CC[C@@H]2CC(=O)C[C@H]12)OC", "note": "(stereo not given in full)", "values": [{"measurement": "GI50", "setting": "RXF 393", "result": "> 100 µM (inactive)"}, {"measurement": "GI50", "setting": "OVCAR-3", "result": "> 100 µM (inactive)"}, {"measurement": "GI50", "setting": "SW-620", "result": "> 100 µM (inactive)"}, {"measurement": "GI50", "setting": "UO-31", "result": "93.8 µM (inactive)"}, {"measurement": "GI50", "setting": "U-251", "result": "> 100 µM (inactive)"}, {"measurement": "GI50", "setting": "DU-145", "result": "> 100 µM (inactive)"}, {"measurement": "GI50", "setting": "A498", "result": "> 100 µM (inactive)"}, {"measurement": "GI50", "setting": "A549", "result": "> 100 µM (inactive)"}, {"measurement": "GI50", "setting": "SF-295", "result": "> 100 µM (inactive)"}, {"measurement": "GI50", "setting": "PC-3", "result": "> 100 µM (inactive)"}, {"measurement": "GI50", "setting": "HCT-15", "result": "> 100", "unit": "µM"}, {"measurement": "GI50", "setting": "EKVX", "result": "> 100 µM (inactive)"}, {"measurement": "GI50", "setting": "SK-MEL-28", "result": "> 100 µM (inactive)"}, {"measurement": "GI50", "setting": "SF-268", "result": "> 100 µM (inactive)"}, {"measurement": "GI50", "setting": "SN12C", "result": "> 100 µM (inactive)"}, {"measurement": "GI50", "setting": "MDA-N", "result": "> 100 µM (inactive)"}, {"measurement": "GI50", "setting": "MCF7", "result": "> 100 µM (inactive)"}, {"measurement": "GI50", "setting": "OVCAR-5", "result": "> 100 µM (inactive)"}]}, {"compound": "CC(=O)OCC1OC(Sc2nc(-c3ccc(Cl)cc3)c(C#N)c(=O)n2C2OC(COC(C)=O)C(OC(C)=O)C(OC(C)=O)C2OC(C)=O)C(OC(C)=O)C(OC(C)=O)C1OC(C)=O", "note": "(stereo not given)", "values": [{"measurement": "GI50", "setting": "RPMI-8226", "result": "35.9 µM (inactive)"}, {"measurement": "GI50", "setting": "OVCAR-4", "result": "3.45 µM (inactive)"}, {"measurement": "GI50", "setting": "SR", "result": "30.3 µM (inactive)"}, {"measurement": "GI50", "setting": "MOLT-4", "result": "50.4 µM (inactive) and > 26.4 µM (inactive)"}, {"measurement": "GI50", "setting": "HL-60", "result": "3.82 µM (inactive)"}]}, {"compound": "CCSc1[nH]c(/N=C(/NC(=O)c2ccccc2)NC(C)C)c(C(N)=O)c1C(N)=O", "values": [{"measurement": "GI50", "setting": "RXF 393", "result": "> 10 µM (inactive)"}, {"measurement": "GI50", "setting": "CCRF-CEM", "result": "> 10 µM (inactive)"}, {"measurement": "GI50", "setting": "RPMI-8226", "result": "> 10 µM (inactive)"}, {"measurement": "GI50", "setting": "SW-620", "result": "> 10 µM (inactive)"}, {"measurement": "GI50", "setting": "IGROV-1", "result": "> 10 µM (inactive)"}, {"measurement": "GI50", "setting": "SK-OV-3", "result": "> 10 µM (inactive)"}, {"measurement": "GI50", "setting": "DU-145", "result": "> 10 µM (inactive)"}, {"measurement": "GI50", "setting": "HCC 2998", "result": "> 10 µM (inactive)"}, {"measurement": "GI50", "setting": "UACC-62", "result": "> 10 µM (inactive)"}, {"measurement": "GI50", "setting": "A549", "result": "> 10 µM (inactive)"}, {"measurement": "GI50", "setting": "786-0", "result": "> 10 µM (inactive)"}, {"measurement": "GI50", "setting": "UACC-257", "result": "> 10 µM (inactive)"}, {"measurement": "GI50", "setting": "OVCAR-4", "result": "> 10 µM (inactive)"}, {"measurement": "GI50", "setting": "T47D", "result": "> 10 µM (inactive)"}, {"measurement": "GI50", "setting": "SR", "result": "> 10 µM (inactive)"}, {"measurement": "GI50", "setting": "COLO 205", "result": "> 10 µM (inactive)"}, {"measurement": "GI50", "setting": "SK-MEL-5", "result": "> 10 µM (inactive)"}, {"measurement": "GI50", "setting": "CAKI-1", "result": "> 10 µM (inactive)"}, {"measurement": "GI50", "setting": "SF-295", "result": "> 10 µM (inactive)"}, {"measurement": "GI50", "setting": "LOX IMVI", "result": "> 10 µM (inactive)"}, {"measurement": "GI50", "setting": "PC-3", "result": "> 10 µM (inactive)"}, {"measurement": "GI50", "setting": "OVCAR-8", "result": "> 10 µM (inactive)"}, {"measurement": "GI50", "setting": "MDA-MB-231", "result": "> 10 µM (inactive)"}, {"measurement": "GI50", "setting": "MDA-MB-435", "result": "> 10 µM (inactive)"}, {"measurement": "GI50", "setting": "HCT-15", "result": "> 10", "unit": "µM"}, {"measurement": "GI50", "setting": "HT-29", "result": "> 10 µM (inactive)"}, {"measurement": "GI50", "setting": "KM12", "result": "> 10 µM (inactive)"}, {"measurement": "GI50", "setting": "EKVX", "result": "> 10 µM (inactive)"}, {"measurement": "GI50", "setting": "TK-10", "result": "> 10 µM (inactive)"}, {"measurement": "GI50", "setting": "HOP-92", "result": "> 10 µM (inactive)"}, {"measurement": "GI50", "setting": "Malme-3M", "result": "> 10 µM (inactive)"}, {"measurement": "GI50", "setting": "SK-MEL-28", "result": "> 10 µM (inactive)"}, {"measurement": "GI50", "setting": "NCI-H23", "result": "> 10 µM (inactive)"}, {"measurement": "GI50", "setting": "SF-268", "result": "> 10 µM (inactive)"}, {"measurement": "GI50", "setting": "SN12C", "result": "> 10 µM (inactive)"}, {"measurement": "GI50", "setting": "MDA-N", "result": "> 10 µM (inactive)"}, {"measurement": "GI50", "setting": "MOLT-4", "result": "> 10 µM (inactive)"}, {"measurement": "GI50", "setting": "M14", "result": "> 10 µM (inactive)"}, {"measurement": "GI50", "setting": "SNB-75", "result": "> 10 µM (inactive)"}, {"measurement": "GI50", "setting": "K562", "result": "> 10 µM (inactive)"}, {"measurement": "GI50", "setting": "MCF7", "result": "> 10 µM (inactive)"}, {"measurement": "GI50", "setting": "HL-60", "result": "> 10 µM (inactive)"}]}]}
